Values of other authors in EP0200541B1, “Immunochemical method and analytical composition and element for determination of creatine kinase-MB” (EASTMAN KODAK COMPANY (a New Jersey corporation), priority 1985, dated 1986).

Assays:
total AK = conditions: AMP:ADP molar ratio of 10:1
liver AK = liver AK (Homo sapiens, UniProt P54819)
CK-MB = CK-MB (Homo sapiens, UniProt P06732+P12277); conditions: 0.5-1 millimolar DAPP
muscle AK = molecular target: T1, muscle AK (Homo sapiens, UniProt P00568); conditions: 0.01 millimolar DAPP
T1 sequence (P00568 1-194): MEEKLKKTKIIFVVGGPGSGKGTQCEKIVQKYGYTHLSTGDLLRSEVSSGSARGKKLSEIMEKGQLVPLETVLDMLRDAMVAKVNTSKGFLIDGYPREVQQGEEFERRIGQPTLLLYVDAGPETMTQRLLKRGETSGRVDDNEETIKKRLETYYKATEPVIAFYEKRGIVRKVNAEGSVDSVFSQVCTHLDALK

erythrocyte AK = molecular target: T2, erythrocyte AK (Homo sapiens, UniProt P00568); conditions: 0.01 millimolar DAPP
T2 sequence (P00568 1-194): T1 sequence (P00568 1-194)

CK-MB, sequence (P06732 whole entry): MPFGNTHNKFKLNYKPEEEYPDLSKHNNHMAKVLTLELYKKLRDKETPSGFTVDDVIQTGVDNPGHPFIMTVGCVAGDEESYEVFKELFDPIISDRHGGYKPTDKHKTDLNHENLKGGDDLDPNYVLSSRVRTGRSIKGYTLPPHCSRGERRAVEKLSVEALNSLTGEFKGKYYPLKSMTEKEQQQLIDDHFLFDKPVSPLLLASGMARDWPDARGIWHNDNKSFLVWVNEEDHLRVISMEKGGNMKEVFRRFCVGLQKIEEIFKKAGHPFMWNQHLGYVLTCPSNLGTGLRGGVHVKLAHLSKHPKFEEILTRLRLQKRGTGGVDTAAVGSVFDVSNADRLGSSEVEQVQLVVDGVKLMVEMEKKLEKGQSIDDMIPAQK
CK-MB, sequence (P12277 whole entry): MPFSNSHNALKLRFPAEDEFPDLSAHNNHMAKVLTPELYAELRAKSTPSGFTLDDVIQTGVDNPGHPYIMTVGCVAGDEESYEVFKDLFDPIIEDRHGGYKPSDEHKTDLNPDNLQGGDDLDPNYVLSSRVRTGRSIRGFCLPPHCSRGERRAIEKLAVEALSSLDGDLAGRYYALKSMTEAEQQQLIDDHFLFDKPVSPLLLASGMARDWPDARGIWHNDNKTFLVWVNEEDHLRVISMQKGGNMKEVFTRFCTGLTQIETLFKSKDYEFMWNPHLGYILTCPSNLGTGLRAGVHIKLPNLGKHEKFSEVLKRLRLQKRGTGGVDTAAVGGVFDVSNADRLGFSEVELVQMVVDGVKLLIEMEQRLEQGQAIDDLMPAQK

Compound	total AK inhibited (total AK) [%]	reduction of the activity of total CK (total CK; AMP:ADP molar ratio of 10:1)	reduction in CK activity (total CK; 0.5-1 millimolar DAPP alone) [%]	liver isoenzyme inhibited (liver AK; 0.01 millimolar DAPP) [%]	activity of liver AK inhibited (liver AK; 0.5-1 millimolar DAPP alone)	reduction of the activity of CK-MB (CK-MB)	muscle AK inhibited (muscle AK) [%]	erythrocyte AK inhibited (erythrocyte AK) [%]
Nc1ncnc2c1ncn2[C@@H]1O[C@H](COP(=O)(O)O)[C@@H](O)[C@H]1O [AMP, adenosine-5'-monophosphate]	95	15-20%						
Nc1ncnc2c1ncn2[C@@H]1O[C@H](COP(=O)(O)OP(=O)(O)OP(=O)(O)OP(=O)(O)OP(=O)(O)OC[C@H]2O[C@@H](n3cnc4c(N)ncnc43)[C@H](O)[C@@H]2O)[C@@H](O)[C@H]1O [DAPP, P^1,P^5-di(adenosine-5')pentaphosphate]			5	80	up to 97%	at least 5%	97	97
